Test results reported in PMC11413853, “Discovery of VU6007496: Challenges in the Development of an M1 Positive Allosteric Modulator Backup Candidate” (ACS Chemical Neuroscience, 2024).
“Also recorded” adds a separate entry of the source.

How the values were obtained:
Imidazoline I2, Central = assay: Eurofins radioligand binding; design: species or system Rat; settings: specific binding
hERG = tested on: T1, hERG; assay: Ion channel current (Charles River Study 200609.WVN); type: cell-based; settings: human, n 3
T1 construct: Charles River
Source text: Table S2. Effects of VU6007496 on Ion Channel Current (Charles River Study 200609.WVN)
Ion Channel Conc Mean % Standard Standard n Individual Data
(μM) Inhibition Deviation Error Points (% Inhibition)

[1] = tested on: Transporter, Dopamine (DAT); assay: Eurofins radioligand binding; design: species or system Human; settings: specific binding
Estrogen ERα = assay: Eurofins radioligand binding; design: species or system Human; settings: specific binding
[2] = tested on: Platelet Activating Factor (PAF); assay: Eurofins radioligand binding; design: species or system Human; settings: specific binding
Glutamate, NMDA, Glycine = Glutamate, NMDA, Glycine (Rattus norvegicus, UniProt P35439); assay: Eurofins radioligand binding; settings: specific binding
Glutamate, NMDA, Glycine, sequence (P35439 394-800 limits assumed): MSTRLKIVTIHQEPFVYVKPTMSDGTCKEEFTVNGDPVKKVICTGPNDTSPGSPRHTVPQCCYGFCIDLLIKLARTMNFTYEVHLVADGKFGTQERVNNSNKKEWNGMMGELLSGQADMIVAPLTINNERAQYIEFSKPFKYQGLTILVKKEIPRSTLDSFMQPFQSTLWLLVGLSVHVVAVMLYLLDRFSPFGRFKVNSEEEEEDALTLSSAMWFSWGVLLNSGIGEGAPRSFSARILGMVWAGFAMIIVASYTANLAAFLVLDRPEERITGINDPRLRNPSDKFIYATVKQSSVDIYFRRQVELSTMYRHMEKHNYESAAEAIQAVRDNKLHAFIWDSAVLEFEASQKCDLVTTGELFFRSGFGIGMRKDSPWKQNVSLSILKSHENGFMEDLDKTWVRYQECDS

[3] = tested on: GABAA, Flunitrazepam, Central; assay: Eurofins radioligand binding; design: species or system Rat; settings: specific binding
Hepatocyte MET ID, human = type: in vitro ADME; settings: 4-h incubation
Source text: More concerning were the results generated via outsourced multispecies hepatocyte MET ID, which were drastically different than the liver S9MET ID. The extent of metabolism for VU6007496 with rat, dog, monkey and human hepatocytes was 64.7, 51.5, 63.9 and 99.5%, respectively (Figure 8). […] In human hepatocytes, PAM 11 was metabolized primarily to Metabolite A (24), the result of oxidative N-demethylation of the southern pyrazole. The other minor metabolites were oxidation on the tetrahydropyran moiety and included ring opening (Metabolite F, 25).[21]

Serotonin (5-HT2B) = assay: Eurofins radioligand binding; design: species or system Human; settings: specific binding
[4] = tested on: layer V medial prefrontal cortex (mPFC); assay: Field electrophysiology, layer V medial prefrontal cortex slices; design: species or system mouse; settings: 3 μM bath application 20 min; recorded layer V, stimulation layer II/III
Experimental: PAMs 11 and 12 were next evaluated in our rat IV plasma: brain level cassette paradigm (0.25 mg/kg compound, 1 mg/kg total dose, 10.1% EtOH:40.4% PEG400:49.5% DMSO) sampled at a set 15 min time point to assess CNS penetration. […] As mice are the most sensitive species to cholinergic mechanisms,[11],[13],[23],[24] we placed a high-throughput phenotypic seizure liability assay into the work-flow in which potent ago-PAMs, such as 2–5,[8]−[15] display robust Racine scale 4/5 behavioral convulsions that develop within minutes of dosing and last for the 3 h duration of the study. […] In parallel, we performed electrophysiology studies in mouse native tissue layer V medial prefrontal cortex (mPFC). […]
Rats were habituated for 10 min for 2 consecutive days in an empty novel object recognition (NOR) arena consisting of dark-colored plexiglass box (40 × 64 × 33 cm3). […] The rats were then returned to the arena in which one of the previously exposed (familiar) objects was replaced by a novel object and were video recorded for 5 min while they explored the two objects. Time spent exploring each object was scored by an observer blinded to the experimental conditions and the recognition index was calculated as [(time spent exploring novel object) – (time spent exploring familiar object)]/total time exploring objects. […]

rCYP3A4 = assay: Substrate depletion with recombinant human CYPs, rCYP3A4; type: in vitro ADME
Source text: (§1) To advance 11 as a candidate and into IND-enabling studies, we next needed to better understand its CYP profile to minimize drug–drug interactions in the clinic. […] We were pleased to see the contribution of another CYP beyond 3A4 for the metabolism of 11.[21] In parallel, we investigated the ability of PAM 11 to induce the expression of CYP450s (measuring mRNA) in cryopreserved human hepatocytes from three separate donors.

CYP2B6 = assay: CYP induction (mRNA) in cryopreserved human hepatocytes, CYP2B6; type: in vitro ADME; settings: three donors
Source text: as §1

mouse M1 = molecular target: T2, mouse M1 (Mus musculus, UniProt P12657); assay: Calcium mobilization assay, mouse M1 PAM; type: cell-based; settings: PAM mode
T2 construct: expressed in transfected cells; host or cells: CHO (stated in general for all functional cell-based assays)
T2 sequence (P12657 whole entry): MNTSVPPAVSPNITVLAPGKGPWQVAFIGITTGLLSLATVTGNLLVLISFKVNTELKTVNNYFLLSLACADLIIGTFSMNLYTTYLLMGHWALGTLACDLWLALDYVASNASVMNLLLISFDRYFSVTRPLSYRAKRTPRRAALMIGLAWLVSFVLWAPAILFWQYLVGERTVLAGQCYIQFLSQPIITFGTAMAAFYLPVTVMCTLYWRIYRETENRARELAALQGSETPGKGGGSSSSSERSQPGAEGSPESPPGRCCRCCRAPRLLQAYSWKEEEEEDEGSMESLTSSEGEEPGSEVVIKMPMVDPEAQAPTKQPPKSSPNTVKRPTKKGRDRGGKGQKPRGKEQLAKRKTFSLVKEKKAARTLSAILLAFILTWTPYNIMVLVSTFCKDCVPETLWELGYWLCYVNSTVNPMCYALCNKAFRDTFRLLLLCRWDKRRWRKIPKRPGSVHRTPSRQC

Glutamate, Kainate = assay: Eurofins radioligand binding; design: species or system Rat; settings: specific binding
Muscarinic M2 = assay: Eurofins radioligand binding; design: species or system Human; settings: specific binding
Adrenergic α1D = assay: Eurofins radioligand binding; design: species or system Human; settings: specific binding
[5] = tested on: Transporter, Serotonin (SERT); assay: Eurofins radioligand binding; design: species or system Human; settings: specific binding
Adrenergic β1 = assay: Eurofins radioligand binding; design: species or system Human; settings: specific binding
Opiate δ1 (OP1, DOP) = assay: Eurofins radioligand binding; design: species or system Human; settings: specific binding
Potassium Channel [KATP] = assay: Eurofins radioligand binding; design: species or system Hamster; settings: specific binding

SMILES: Cn1ccc(-c2ccc(Cc3cc(C(=O)NC4CCOCC4)nc4ccn(C)c34)cc2)n1 [compound 11]
- % Inhibition at 10 µM (Imidazoline I2, Central): -9%
- inhibition at 10 µM (hERG): 2.6%
- % Inhibition at 10 µM [1]: 13%
- % Inhibition at 10 µM (Estrogen ERα): 5%
- % Inhibition at 10 µM [2]: -13%
- inhibition at 10 µM (Glutamate, NMDA, Glycine): 0%
- % Inhibition at 10 µM [3]: -3%
- extent of metabolism, human hepatocytes (Hepatocyte MET ID, human): 99.5%
- % Inhibition at 10 µM (Serotonin (5-HT2B)): 7%
- change in fEPSP slope (long-term depression) [4]: did not induce significant changes; also recorded: no significant change in fEPSP slope
- share of hepatic CYP-mediated clearance, rCYP3A4 (rCYP3A4): 97.6%
- CYP2B6 induction (mRNA) (CYP2B6): ~8 fold
- EC50 (mouse M1): 92 nM
- mouse M1 PAM ACh max (mouse M1): 66%
- % Inhibition at 10 µM (Glutamate, Kainate): -19%
- % Inhibition at 10 µM (Muscarinic M2): 0%
- % Inhibition at 10 µM (Adrenergic α1D): -6%
- % Inhibition at 10 µM [5]: -7%
- % Inhibition at 10 µM (Adrenergic β1): -14%
- % Inhibition at 10 µM (Opiate δ1 (OP1, DOP)): 5%
- % Inhibition at 10 µM (Potassium Channel [KATP]): 11%
